# Patent publication US20090203877A1, “X-RAY-DENSE CONJUGATE” (Eberhard-Karls-Universitaet Tuebingen Universitaetsklinkum, priority 2006, published 2009)
# “Also recorded” adds a separate entry of the source.
# Test system: human malignant U373 glioma cells
# Assay: Uptake/staining of cells by FITC-labelled conjugates (fluorescence microscopy, CLSM, FACS, semi-thin sections)
# Type: cell-based
# Conditions: for strongly labeled (heavily stained) cells, FACS: 20 min incubation; for stained cells: 260 μM in PBS, 20 min (experiments with conjugates 9-15)
# Procedure: Fluorescence was measured in a Becton Dickinson FACSCalibur. […] The investigations were performed in triplicate.
# For CT and FACS human U373 glioma cells were grown under the same conditions in 75 cm^2 culture flasks (Corning Costar, Bodenheim, Germany) (70% confluency). Accutase™ (PAA laboratories, Pasching, Austria) was added to achieve detachment of the cells which were harvested and subsequently aliquoted into Eppendorf tubes (6×10^6 cells per tube). As in the investigations performed by fluorescence microscopy, the cells in the first tube served as a control (PBS only). The cells in the other tubes were incubated with 260 μM Ultravist, 260 μM TIBA in PBS and 26 μM, 260 μM and 2.6 mM conjugates 1-4 in PBS. After a 20 minute incubation period at 37° C. in an atmosphere of 5% CO2, the cells were washed three times in PBS and centrifuged at 800 rpm for 5 minutes.
# The FACS analysis was performed as described under 1.4.
# The human malignant U373 and LN18 glioma cells were cultivated in 75 cm^2 culture flasks (Corning Costar) (70% confluency) under the conditions as described under 1.4, detached from the flask bottom with Accutase™ (PAA Laboratories) and in the following distributed on Eppendorf tubes (Eppendorf, Hamburg, Germany) (6×10^6 per tube). The cells in the first tube serve as a control (only PBS buffer only). The cells in the other ten tubes were each incubated with benzoic acid (BA), monoiodobenzoic acid (MIBA) or diiodobenzoic acid (DIBA) alone (260 μM), conjugate 3 alone (260 μM), conjugate 3 plus either BA, MIBA or DIBA (260 μM), respectively, and the conjugates 9, 10, and 11 alone. (260 μM).
# After an incubation of 20 minutes at 37° C./5% CO2 the cells were washed three times with PBS buffer and centrifuged at 800 rpm (rounds per minute) for 5 minutes. The fluorescence was measured in Becton Dickinson FACSCalibur as described under 1.4. The computer tomography was performed as described under 1.5.1. The examinations were repeated two times.
# For the CT and FACS examinations human LN-18 and U373 glioma cells were cultivated in 75 cm^2 culture flasks (Corning Costar) (70% confluency) (conditions as described under 1.4). Accutase™ (PAA Laboratories) was added to detach the cells from the bottom of the culture flasks. The cells were collected and then distributed on Eppendorf tubes (6×10^6 cells per tube). The cells in the first two tubes serve as a control (in each case only PBS, LN18 and U373 glioma cells, native). The cells in the other tubes (in each case LN18 and U373 glioma cells) were incubated with a 260 μM or 2.6 mM solution of the conjugate 12 for 20 minutes at 37° C. and 5% CO2 and in the following washed for three times with PBS buffer and centrifuged for 5 minutes with 800 rpm (rounds per minute). For a small amount of the cells it was tested by the MMT test (see 1.4) how many of the cells were still viable. The computer tomography of the cell centrifuges was performed with the Somatom Sensation 16 (Siemens).
# The FACS analysis was performed as described under 1.4. The assay was repeated two times.
# For the CT and FACS examinations human LN18 and U373 glioma cells were cultivated in 75 cm^2 culture flasks (70% confluency) (conditions as described under section 1). Accutase™ (PAA Laboratories) was added to detach the cell from the culture bottom. The cells were collected and then distributed on Eppendorf-tubes (6×10^6 cells per tube). […] The next three tubes were used for the coincubation of the cells either with trichlorobenzoic acid (TCBA), trifluorobenzoic acid (TFBA) or tribromophenyl Isocyanat (TBPI) and the NLS-FITC-conjugate 3 (260 μM). As control cells were used which were only either incubated with CIBA, FIBA, TBPI (in each case 260 μM in PBS) or with PBS-buffer (native control) alone. […] The computer tomography and FACS analysis of the cell centrifuges were performed as described in 1.5.1 or 1.4, respectively for three times. […]
Substance,"strongly labeled (heavily stained) cells, FACS (26 μM)",stained cells,"strongly labeled (heavily stained) cells, FACS (260 μM)","strongly labeled (heavily stained) cells, FACS (2.6 mM)",number of stained cells / cellular staining rate (conjugate co-incubated with free TIBA (260 μM)),staining of cell nuclei (CLSM overview) (260 μM),staining of nucleoli in semi-thin sections (about 0.4 μm) (fluorescence microscopy after incubation)
"PKKKRKVK(FITC)GGK (FITC, GGK linker) [conjugate 3, FITC-labelled correct NLS of the SV 40 T antigen without TIBA]",6%,8%,7%,10%,not associated with a higher cellular staining rate; also recorded: did not result in any changes,–,–
"PKKKRKVK(FITC)GGK(BA) (FITC, GGK linker, benzoic acid) [conjugate 9, FITC-labelled NLS of the SV 40 T antigen with non-iodized benzoic acid]",–,8%,–,–,–,–,–
"PKKKRKVK(FITC)GGK(TIBA) (FITC, GGK linker, TIBA) [conjugate 1, FITC-labelled correct NLS of the SV 40 T antigen with TIBA]",32%,–,32%,93%,–,A very large number of cell nuclei has been stained,clearly stained
